Source: PubChem BioAssay (NCI)
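Each compound was tested at five concentrations against cells in 96-well plates for 48 hours. TGI marks complete inhibition of growth.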

Tests used:
Experiment in all cases: NCI tumour cell line growth inhibition, 48 h
DMS 114 small cell lung = tested on: DMS 114 small cell lung
P388/ADR leukemia = tested on: P388/ADR leukemia
SNB-78 CNS = tested on: SNB-78 CNS
SN12K1 renal = tested on: SN12K1 renal
DMS 273 small cell lung = tested on: DMS 273 small cell lung
DLD-1 colon = tested on: DLD-1 colon
LOX IMVI melanoma = tested on: LOX IMVI melanoma
P388 leukemia = tested on: P388 leukemia
KM20L2 colon = tested on: KM20L2 colon
HOP-18 NSCLC = tested on: HOP-18 NSCLC
M19-MEL melanoma = tested on: M19-MEL melanoma
XF 498 CNS = tested on: XF 498 CNS

Measured: TGI

C#CCNC(=O)CCC(N)C(=O)O (configuration not stated)
> 100 µM: all assays above
